# “Also recorded” adds a separate entry of the source. Like-named read-outs stand apart in the source and are kept apart here.
# Legend:
# CYP2D6 [1] = test: Kinetic parameters of 4-hydroxyl debrisoquine formation in liver microsomes (HLM, 8HUM); type: in vitro ADME; details: pooled human liver microsomes (HLM)
# Description: All samples were handled in amber tubes under conditions of subdued light for the duration of the procedure. […] The samples were then centrifuged at 3000g for 55 minutes at 4°C and an aliquot of the supernatant fraction was analyzed by LC-MS/MS.
# Calibration curves were constructed with authentic metabolite standards and linear regression analysis used to calculate the amount of metabolite formed in each test sample. […] The 7-ethoxyresorufin O-deethylation assay was carried out as detailed below.
# [2] = female, 8HUM, mouse, in vivo
# Description: Blood sampling and analysis was carried out as described above and in Supplemental Data.
# CYP1A2 [3] = target: T1, CYP1A2 (Homo sapiens, UniProt P05177); test: Enzyme inhibition assay, caffeine to paraxanthine (HLM, 8HUM microsomes); details: caffeine 220 μM in cocktail, furafylline 3, enoxacin 200, fluconazole 300, sulfaphenazole 3, quinidine 3, paroxetine 10, ketoconazole 1 μM
# T1 sequence (P05177 1-516): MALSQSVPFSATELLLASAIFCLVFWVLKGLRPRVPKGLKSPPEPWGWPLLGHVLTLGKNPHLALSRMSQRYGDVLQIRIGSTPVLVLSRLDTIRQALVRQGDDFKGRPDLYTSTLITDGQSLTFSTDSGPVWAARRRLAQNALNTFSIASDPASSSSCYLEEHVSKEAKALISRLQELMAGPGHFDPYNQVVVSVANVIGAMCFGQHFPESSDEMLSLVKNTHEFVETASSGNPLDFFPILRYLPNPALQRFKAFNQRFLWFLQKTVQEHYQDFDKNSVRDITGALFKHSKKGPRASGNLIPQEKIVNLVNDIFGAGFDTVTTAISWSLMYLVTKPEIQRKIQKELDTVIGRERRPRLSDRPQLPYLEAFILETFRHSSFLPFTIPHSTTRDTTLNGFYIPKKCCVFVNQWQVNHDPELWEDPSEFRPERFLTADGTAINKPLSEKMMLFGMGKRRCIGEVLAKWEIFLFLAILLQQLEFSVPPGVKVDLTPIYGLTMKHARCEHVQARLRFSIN
# Description: (§1) After a 5-minute preincubation at 37°C, reactions were initiated by addition of NADPH (1.3 mM). […] The samples were then centrifuged at 3000g for 55 minutes at 4°C, and an aliquot of the supernatant fraction was analyzed by LC-MS/MS. All experiments were performed at least in triplicate.
# CYP2C9 [4] = target: T2, CYP2C9 (Homo sapiens, UniProt P11712); test: Enzyme inhibition assay, tolbutamide hydroxylation (HLM, 8HUM microsomes); details: tolbutamide 2 μM in cocktail, furafylline 3, enoxacin 200, fluconazole 300, sulfaphenazole 3, quinidine 3, paroxetine 10, ketoconazole 1 μM
# T2 sequence (P11712 whole entry): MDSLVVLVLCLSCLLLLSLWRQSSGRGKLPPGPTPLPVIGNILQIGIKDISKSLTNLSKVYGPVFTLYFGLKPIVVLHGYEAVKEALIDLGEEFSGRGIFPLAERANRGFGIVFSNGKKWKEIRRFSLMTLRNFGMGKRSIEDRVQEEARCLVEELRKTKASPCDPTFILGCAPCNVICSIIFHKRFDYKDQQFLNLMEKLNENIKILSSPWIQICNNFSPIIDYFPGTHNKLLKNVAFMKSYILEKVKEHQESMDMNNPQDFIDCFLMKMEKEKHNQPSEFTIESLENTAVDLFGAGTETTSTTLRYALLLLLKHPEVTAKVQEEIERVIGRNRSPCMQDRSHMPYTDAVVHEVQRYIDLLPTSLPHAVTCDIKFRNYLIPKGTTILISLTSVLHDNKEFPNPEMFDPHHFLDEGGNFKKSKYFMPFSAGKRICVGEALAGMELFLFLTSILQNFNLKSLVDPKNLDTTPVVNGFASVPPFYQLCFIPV
# Description: as §1
# [5] = Dabrafenib pharmacokinetics in 8HUM mice: effect of rifampicin and ketoconazole; type: in vivo, mouse; details: for Cmax / half-life / AUC: female, 8HUM, mouse, whole blood, po, 10 mg/kg, female 8HUM mice, dabrafenib 10 mg/kg PO; for AUC: read-out: AUC0 t
# Description: Pharmacokinetic parameters were calculated by Phoenix WinNonlin version 8.0.0.3176 (Certara, Princeton, NJ).
# Fig. 3.
# [6] = healthy volunteers; single dose of 200 mg ketoconazole 2 hours prior to midazolam; ref McCrea et al., 1999; cited from earlier work
# [7] = Pharmacokinetics of S-acenocoumarol in 8HUM and CypC4KO mice: effect of sulfaphenazole; type: in vivo, mouse; details: S-acenocoumarol 1 mg/kg oral
# Description: Mice were administered two daily doses of SJW before receiving a single oral dose of S-acenocoumarol (1 mg/kg). S-acenocoumarol was dissolved in dimethyl sulfoxide (1 mg/ml) and diluted 10-fold in 100 mM potassium phosphate buffer (pH8) or in a solution of sulfaphenazole (9.78 mg/ml) in the same buffer. Compounds were administered to mice at a volume of 10 ml/kg. Blood collection and sample preparation was performed as described above and analytical details are provided in Supplemental Data.
# Fig. 6. […] (A) In vitro microsomal stability assay. […] Values show are mean ± S.D.
# [8] = design: method as in Thijssen et al., 2001; unit not given beside the values; details: man; ref Thijssen et al., 2001; cited from earlier work
# [9] = Microsomal stability of S-acenocoumarol; details: 1 μM, 2 mg protein/ml
# Description: The reaction mixture aliquots were taken at specified time points and mixed with an equal volume of acetonitrile containing warfarin (50 ng/ml) as an internal standard. […] The concentrations of S-acenocoumarol were measured by LC-MS/MS. Chromatographic separation was performed on a Kinetex C18 100 Å column (2.6 μm; 5.0 × 2.1 mm) (Phenomenex) using an injection volume of 10 μl and a run time of 7 minutes. The detector used was a Micromass Quattro Micro mass spectrometer (Waters Corporation) run in electrospray positive ion mode.
# CYP2C9 [10] = target: T2, CYP2C9; design: pooled rifampicin-treated male and female 8HUM mice (8HUM) or pooled human liver microsomes (HLM); host or cells: liver microsomes: pooled human liver; liver of 8HUM mice carrying human CYP2C9 driven by the albumin promoter; details: man; ref Thijssen et al., 2001; cited from earlier work
# Cyp2b10 = test: Murine Cyp2b10 expression in humanized mice after treatment (immunoblot); type: in vivo, mouse; details: 8HUM mice, dabrafenib 10 mg/kg
# Description: We therefore sought to identify a specific, clinically relevant PXR agonist that was nontoxic. […] Subsequent studies were therefore undertaken using SJW to induce CYP3A4 expression in 8HUM mice.
# (§2) Fig. 7. […] Arrow indicates position of Cyp2b10 band. GRP78 was used as a loading control.
# Fig. 8. Effect of dabrafenib on midazolam pharmacokinetics in 8HUM mice. Adult female 8HUM mice (n = 3) were treated with vehicle or dabrafenib (10 mg/kg) PO daily for 2 days, and on day 3 were administered midazolam (3 mg/kg) PO and PK profiling carried out as described in Materials and Methods. (A) Pharmacokinetic profiling for midazolam in 8HUM mice receiving either vehicle (open circles) or dabrafenib (closed triangles). Data shown are mean ± S.D. (B) Immunoblotting of liver microsomes from 8HUM mice, untreated or treated as above, against mouse and human P450 isozymes. Dab, Dabrafenib; MDZ, midazolam; Unt, untreated; Veh, vehicle. One group of dabrafenib-treated mice (Dab) were sacrificed on day 3 without exposure to midazolam to determine the effects of dabrafenib on P450 expression at the start of the PK profiling. […] Std, standard, recombinant human P450 protein or phenobarbital-treated liver microsomes (Cyp2b10); HLM, human liver microsomes.
# CYP3A4 = test: Hepatic CYP3A4 expression in 8HUM mice after dabrafenib (immunoblot); type: in vivo, mouse; details: dabrafenib 10 mg/kg PO
# Description: Female 8HUM mice received either two daily oral doses of dabrafenib (n = 3; 15 weeks; 10 mg/kg) or vehicle (n = 3; 16 weeks; 0.5% hydroxypropylmethylcellulose, 0.2% Tween 80). On day 3 both groups were administered midazolam (3 mg/kg) by oral gavage. Whole blood collection and sample preparation were performed as described above, and analytical details are described in Supplemental Data. A third group of female 8HUM mice (n = 3; 17–22 weeks) received two daily doses of dabrafenib (10 mg/kg) by oral gavage and were culled for tissue collection on day 3 to allow determination of the effects of dabrafenib on P450 expression at the start of the pharmacokinetic (PK) study.
# as §2
# Fig. 8. Effect of dabrafenib on midazolam pharmacokinetics in 8HUM mice. Adult female 8HUM mice (n = 3) were treated with vehicle or dabrafenib (10 mg/kg) PO daily for 2 days, and on day 3 were administered midazolam (3 mg/kg) PO and PK profiling carried out as described in Materials and Methods. (A) Pharmacokinetic profiling for midazolam in 8HUM mice receiving either vehicle (open circles) or dabrafenib (closed triangles). Data shown are mean ± S.D. (B) Immunoblotting of liver microsomes from 8HUM mice, untreated or treated as above, against mouse and human P450 isozymes. Dab, Dabrafenib; MDZ, midazolam; Unt, untreated; Veh, vehicle. […]
# Cytochrome c reductase = Cytochrome c reductase activity in liver microsomes of dabrafenib-treated 8HUM mice; type: in vitro ADME, mouse; details: 8HUM liver microsomes
# Description: A mixture of cytochrome c from bovine heart (40 μM) and mouse liver microsomes (∼7.6 μg/ml) in 0.3 M potassium phosphate buffer (pH 7.7) was incubated at 37°C for at least 2 minutes before the reaction was started by addition of NADPH (0.1 mM final concentration). The absorbance at 550 nm was recorded and the reaction rate calculated from the linear region of the absorbance time course. The extinction coefficient of 0.0211 μM^−1cm^−1 was used ([van Gelder and Slater, 1962]) to calculate concentration of the reduced cytochrome c.
# (§3) Fig. 8. Effect of dabrafenib on midazolam pharmacokinetics in 8HUM mice. […] Dab, Dabrafenib; MDZ, midazolam; Unt, untreated; Veh, vehicle.
# 8HUM liver microsomes [11] = test: Dextromethorphan O-demethylation in liver microsomes of dabrafenib-treated 8HUM mice; type: in vitro ADME, mouse
# Description: After 5 minutes, the reaction was stopped by combining 100 μl of the reaction mixture with 120 μl of 0.2 M hydrochloric acid containing dextrorphan-d3 (92 ng/ml) as an internal standard. […] The concentrations of […] were measured by liquid chromatography–tandem mass spectrometry (LC-MS/MS). […] The multiple reaction monitoring parameters for dextrorphan and dextrorphan-d3 were 258.16 and 261.24 (precursor ions) and 157.04 (one product ion for both compounds), respectively.
# as §3
# 8HUM liver microsomes [12] = test: Dibenzylfluorescein O-debenzylation in liver microsomes of dabrafenib-treated 8HUM mice; type: in vitro ADME, mouse; details: for Dibenzylfluorescein O-debenzylation: 8HUM liver microsomes, dabrafenib-treated
# Description: The O-debenzylation of dibenzylfluorescein (DBF) was measured as described above for the 7-methoxyresorufin O-demethylation assay, with the following modifications: the DBF concentration was 2 μM; the excitation filter was 485 nm; the emission filter was 530 nm; 20 pmol of the fluorescein was added to the control wells.
# as §3
# [13] = design: method as in Suttle et al., 2015; details: patients, 150 mg twice per day, ref Suttle et al., 2015, cited from earlier work
# CYP1A2 [14] = target: T1, CYP1A2; test: 7-Methoxyresorufin O-demethylation in liver microsomes of treated 8HUM mice; details: 8HUM liver microsomes, dabrafenib-treated
# Description: A mixture of either 7-methoxyresorufin or 7-ethoxyresorufin (1 μM) and 8HUM liver microsomes or HLM (∼0.38 mg protein/ml) in 100 mM potassium phosphate buffer (pH 7.4) supplemented with MgCl2 (3.3 mM) was incubated at 37°C for 5 minutes before the addition of NADPH (final concentration 1.2 mM). […] Slopes of the linear part of the kinetic curves were calculated using Ascent Software Version 2.4.1 (Labsystems). For each reaction two controls, with and without reaction product resorufin (40 pmol) were run. Fluorescence was measured from both control wells and the difference in fluorescence intensity between wells with and without resorufin was used for the conversion of the relative fluorescence units to the picomoles of the reaction product.
# CYP2D6 [15] = system: CYP2D6; design: method as in VandenBrink et al., 2012; details: man; ref VandenBrink et al., 2012; cited from earlier work
# [16] = Rifampicin 10 mg/kg i.p. daily for 3 days
# [17] = Rifampicin + ketoconazole 20 mg/kg PO 30 minutes before
# [18] = Vehicle (corn oil) pretreatment
smiles,measurement,setting,value
"N=C(N)N1CCc2ccccc2C1 [Debrisoquine, debrisoquine]",Km at 40 min,CYP2D6 [1]; pH 7.4,25 ± 7 µM
same,Vmax,CYP2D6 [1],25 ± 2 pmol/min per milligram protein
same,CYP2D6 fm (fraction metabolized),[2],0.88
"CC(=O)N1CCN(c2ccc(OCC3COC(Cn4ccnc4)(c4ccc(Cl)cc4Cl)O3)cc2)CC1 (stereo not drawn) [Ketoconazole, ketoconazole]","Caffeine (Paraxanthine) activity, percent of activity measured in the absence of inhibitor",CYP1A2 [3]; 8HUM microsomes […],85 ± 34%
same,"Caffeine (Paraxanthine) activity, percent of activity measured in the absence of inhibitor",CYP1A2 [3]; HLM […],135 ± 45%
same,"Tolbutamide (OH-Tolbutamide) activity, percent of activity measured in the absence of inhibitor",CYP2C9 [4]; 8HUM microsomes […],92 ± 11%
same,"Tolbutamide (OH-Tolbutamide) activity, percent of activity measured in the absence of inhibitor",CYP2C9 [4]; HLM […],154 ± 66%
same,Effect of prior ketoconazole on dabrafenib exposure (Cmax and AUC),"[5]; rifampicin-treated female 8HUM mice, ketoconazole 20 mg/kg PO 30 min before dabrafenib",approximately doubling both the Cmax and AUC
same,Increase of midazolam AUC,[6],~5 fold
CC(=O)C[C@@H](c1ccc([N+](=O)[O-])cc1)c1c(O)c2ccccc2oc1=O [S-acenocoumarol],AUC,"[7]; SJW-pretreated 8HUM mice, coadministered sulfaphenazole",2.008 ± 0.159 µg·h/mL
same,AUC,"[7]; SJW-pretreated 8HUM mice, vehicle-treated",0.23 ± 0.03 µg·h/mL
same,AUC,[7]; SJW-pretreated CypC4KO mice,2.52 ± 0.214 µg·h/mL
same,AUCR in CYP2C9 extensive versus poor metabolizers,[8],16.3
same,Metabolism in liver microsomes,[9]; liver microsomes from CYP2C9 humanized mice,rapidly metabolized
same,Metabolism in liver microsomes,"[9]; microsomes from wild-type, Cyp2cKO, Cyp2c/2d/3a KO, or hepatic P450 reductase-null mice",practically indistinguishable from that in the no cofactor control
same,fraction metabolized by CYP2C9,CYP2C9 [10],0.94
CC(C)(C)c1nc(-c2cccc(NS(=O)(=O)c3c(F)cccc3F)c2F)c(-c2ccnc(N)n2)s1 [dabrafenib],Cmax,[5]; [16],1.74 ± 0.733 µg/mL
same,half-life,[5]; [16],1.4 ± 0.3 h
same,AUC,[5]; [16],6.15 ± 2.93 µg·h/mL
same,Cmax,[5]; [17],3.65 ± 1.22 µg/mL
same,half-life,[5]; [17],1.8 ± 0.1 h
same,AUC,[5]; [17],12.9 ± 2.71 µg·h/mL
same,Cmax,[5]; [18],3.75 ± 0.613 µg/mL
same,half-life,[5]; [18],2.6 ± 0.4 h
same,AUC,[5]; [18],21.9 ± 1.69 µg·h/mL
same,Induction of murine Cyp2b10,Cyp2b10,induced weakly
same,CYP3A4 induction,CYP3A4,potent PXR activator and CYP3A4 inducer; also recorded: is a CYP3A4 inducer; also recorded: induction of CYP3A4
same,Cytochrome c reductase,Cytochrome c reductase; 24 h after final dose,301 ± 19
same,Cytochrome c reductase,Cytochrome c reductase; 48 h after final dose,244 ± 19
same,Dextromethorphan O-demethylation,8HUM liver microsomes [11]; 24 h after final dose,726 ± 24
same,Dextromethorphan O-demethylation,8HUM liver microsomes [11]; 48 h after final dose,614 ± 28
same,Dibenzylfluorescein O-debenzylation,8HUM liver microsomes [12]; 24 h after final dose,440 ± 31
same,Dibenzylfluorescein O-debenzylation,8HUM liver microsomes [12]; 48 h after final dose,151 ± 5
same,Increase of 7-benylfluorescein O-debenzylation,"8HUM liver microsomes [12]; 24 hours after the second dabrafenib dose, vs vehicle",approximately 5.5 fold
same,Elevation of 7-benylfluorescein O-debenzylation,"8HUM liver microsomes [12]; 24 hours later (48 h after final dabrafenib dose), vs control",about twice control values
same,AUC0-t,[13]; day 1,9.359 µg·h/mL
same,half-life,[13]; day 1,4.2 h
same,AUC0-t,[13]; day 18,6.545 µg·h/mL
same,half-life,[13]; day 18,2.1 h
same,Methoxyresorufin O-demethylation,CYP1A2 [14]; 24 h after final dose,52 ± 4
same,Methoxyresorufin O-demethylation,CYP1A2 [14]; 48 h after final dose,36 ± 1
CNCCCN1c2ccccc2CCc2ccccc21 [desipramine],CYP2D6 fm,CYP2D6 [15],0.88
